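Exposure lasted 48 hours, with cells grown in 96-well plates and compounds tested at five concentrations. GI50 = concentration required for 50% inhibition of growth. Definition used: TGI = concentration required for complete inhibition of growth.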
What was measured:
Assay in all cases: growth of human tumour cells (NCI), 48 h
786-0 renal = test system: 786-0 renal
A498 renal = test system: A498 renal
A549 NSCLC = test system: A549 NSCLC
ACHN renal = test system: ACHN renal
CCRF-CEM leukemia = test system: CCRF-CEM leukemia
COLO 205 colon = test system: COLO 205 colon
DU-145 prostate = test system: DU-145 prostate
EKVX NSCLC = test system: EKVX NSCLC
HCC-2998 colon = test system: HCC-2998 colon
HCT-116 colon = test system: HCT-116 colon
HCT-15 colon = test system: HCT-15 colon
HL-60(TB) leukemia = test system: HL-60(TB) leukemia
HOP-62 NSCLC = test system: HOP-62 NSCLC
HS 578T breast = test system: HS 578T breast
HT29 colon = test system: HT29 colon
IGROV1 ovarian = test system: IGROV1 ovarian
K-562 leukemia = test system: K-562 leukemia
KM12 colon = test system: KM12 colon
LOX IMVI melanoma = test system: LOX IMVI melanoma
MALME-3M melanoma = test system: MALME-3M melanoma
MCF7 breast = test system: MCF7 breast
MDA-MB-231 breast = test system: MDA-MB-231 breast
MDA-MB-435 = test system: MDA-MB-435
MDA-N = test system: MDA-N
MOLT-4 leukemia = test system: MOLT-4 leukemia
NCI-H226 lung = test system: NCI-H226 lung
NCI-H23 lung = test system: NCI-H23 lung
NCI-H460 lung = test system: NCI-H460 lung
NCI-H522 lung = test system: NCI-H522 lung
NCI/ADR-RES ovarian = test system: NCI/ADR-RES ovarian
OVCAR-3 ovarian = test system: OVCAR-3 ovarian
OVCAR-4 ovarian = test system: OVCAR-4 ovarian
OVCAR-5 ovarian = test system: OVCAR-5 ovarian
OVCAR-8 ovarian = test system: OVCAR-8 ovarian
PC-3 prostate = test system: PC-3 prostate
RPMI-8226 leukemia = test system: RPMI-8226 leukemia
SF-268 CNS = test system: SF-268 CNS
SF-295 CNS = test system: SF-295 CNS
SF-539 CNS = test system: SF-539 CNS
SK-MEL-28 melanoma = test system: SK-MEL-28 melanoma
SK-MEL-5 melanoma = test system: SK-MEL-5 melanoma
SK-OV-3 ovarian = test system: SK-OV-3 ovarian
SN12C renal = test system: SN12C renal
SNB-19 CNS = test system: SNB-19 CNS
SR leukemia = test system: SR leukemia
TK-10 renal = test system: TK-10 renal
U251 CNS = test system: U251 CNS
UACC-257 melanoma = test system: UACC-257 melanoma
UACC-62 melanoma = test system: UACC-62 melanoma
BT-549 breast = test system: BT-549 breast
CAKI-1 renal = test system: CAKI-1 renal
HOP-92 NSCLC = test system: HOP-92 NSCLC
M14 melanoma = test system: M14 melanoma
RXF 393 renal = test system: RXF 393 renal
SK-MEL-2 melanoma = test system: SK-MEL-2 melanoma
SNB-75 CNS = test system: SNB-75 CNS
SW-620 colon = test system: SW-620 colon
T-47D breast = test system: T-47D breast
UO-31 renal = test system: UO-31 renal

In the case of `O=c1cc(NNc2ccccc2)[nH]c(=O)[nH]1`, the TGI (786-0 renal) is reported as 29.6 µM, the TGI (A498 renal) is reported as over 100 µM and the TGI (A549 NSCLC) is reported as over 100 µM. It also gave a TGI (ACHN renal) of 26.1 µM, a TGI (CCRF-CEM leukemia) of over 100 µM and a TGI (COLO 205 colon) of 31.8 µM. It also gave a TGI (DU-145 prostate) of over 100 µM, a TGI (EKVX NSCLC) of over 100 µM and a TGI (HCC-2998 colon) of 39.9 µM. For the same compound, the TGI (HCT-116 colon) was 32.6 µM, the TGI (HCT-15 colon) was 30 µM and the TGI (HL-60(TB) leukemia) was 64.6 µM. It also gave a TGI (HOP-62 NSCLC) of over 100 µM, a TGI (HS 578T breast) of over 100 µM and a TGI (HT29 colon) of 39 µM. For the same compound, the TGI (IGROV1 ovarian) was over 100 µM, the TGI (K-562 leukemia) was 91.1 µM and the TGI (KM12 colon) was 32.8 µM. The TGI (LOX IMVI melanoma) was 42.7 µM, the TGI (MALME-3M melanoma) was 34.4 µM and the TGI (MCF7 breast) was 26.3 µM. The TGI (MDA-MB-231 breast) was 29.3 µM, the TGI (MDA-MB-435) was 33.7 µM and the TGI (MDA-N) was 35.1 µM. It also gave a TGI (MOLT-4 leukemia) of 66.1 µM, a TGI (NCI-H226 lung) of 36 µM and a TGI (NCI-H23 lung) of over 100 µM. It also gave a TGI (NCI-H460 lung) of 98.9 µM, a TGI (NCI-H522 lung) of 46.2 µM and a TGI (NCI/ADR-RES ovarian) of 67.9 µM. The TGI (OVCAR-3 ovarian) was 30.9 µM, the TGI (OVCAR-4 ovarian) was 29.5 µM and the TGI (OVCAR-5 ovarian) was over 100 µM. For the same compound, the TGI (OVCAR-8 ovarian) was 46.1 µM, the TGI (PC-3 prostate) was 36.3 µM and the TGI (RPMI-8226 leukemia) was 59.9 µM. It also gave a TGI (SF-268 CNS) of 99.6 µM, a TGI (SF-295 CNS) of over 100 µM and a TGI (SF-539 CNS) of over 100 µM. It also gave a TGI (SK-MEL-28 melanoma) of 23.2 µM, a TGI (SK-MEL-5 melanoma) of over 100 µM and a TGI (SK-OV-3 ovarian) of over 100 µM. It also gave a TGI (SN12C renal) of 49.4 µM, a TGI (SNB-19 CNS) of 35.5 µM and a TGI (SR leukemia) of 84.6 µM. For the same compound, the TGI (TK-10 renal) was over 100 µM, the TGI (U251 CNS) was 31.9 µM and the TGI (UACC-257 melanoma) was 31.7 µM. The TGI (UACC-62 melanoma) was 28.5 µM.
Work on `COc1ccc(C2=C(c3ccc(OC)cc3)C(=O)OC2)cc1` yielded a GI50 (786-0 renal) of 2.11 µM, a TGI (786-0 renal) of 10.9 µM and a GI50 (A498 renal) of 0.528 µM. It also gave a TGI (A498 renal) of 3.66 µM, a GI50 (A549 NSCLC) of 2.57 µM and a TGI (A549 NSCLC) of over 100 µM. For the same compound, the GI50 (ACHN renal) was 2.72 µM, the TGI (ACHN renal) was 23.4 µM and the GI50 (BT-549 breast) was 11.7 µM. It also gave a TGI (BT-549 breast) of over 100 µM, a GI50 (CAKI-1 renal) of 0.489 µM and a TGI (CAKI-1 renal) of 14.8 µM. The GI50 (CCRF-CEM leukemia) was 3.29 µM, the TGI (CCRF-CEM leukemia) was 18.5 µM and the GI50 (COLO 205 colon) was 1.38 µM. It also gave a TGI (COLO 205 colon) of over 100 µM, a GI50 (DU-145 prostate) of 2.38 µM and a TGI (DU-145 prostate) of over 46.6 µM. For the same compound, the GI50 (EKVX NSCLC) was 16.1 µM, the TGI (EKVX NSCLC) was over 100 µM and the GI50 (HCC-2998 colon) was 0.264 µM. For the same compound, the TGI (HCC-2998 colon) was 14.5 µM, the GI50 (HCT-116 colon) was 1.97 µM and the TGI (HCT-116 colon) was 11.8 µM. For the same compound, the GI50 (HCT-15 colon) was 0.514 µM, the TGI (HCT-15 colon) was 8.27 µM and the GI50 (HL-60(TB) leukemia) was 0.525 µM. The TGI (HL-60(TB) leukemia) was 4.58 µM, the GI50 (HOP-62 NSCLC) was 2.25 µM and the TGI (HOP-62 NSCLC) was 24.6 µM. The GI50 (HOP-92 NSCLC) was 7.45 µM, the TGI (HOP-92 NSCLC) was 51.9 µM and the GI50 (HS 578T breast) was 0.604 µM. For the same compound, the TGI (HS 578T breast) was 3.93 µM, the GI50 (HT29 colon) was 0.437 µM and the TGI (HT29 colon) was over 100 µM. It also gave a GI50 (IGROV1 ovarian) of 5.03 µM, a TGI (IGROV1 ovarian) of over 100 µM and a GI50 (K-562 leukemia) of 1.24 µM. It also gave a TGI (K-562 leukemia) of 24.3 µM, a GI50 (KM12 colon) of 0.555 µM and a TGI (KM12 colon) of over 37.7 µM. The GI50 (LOX IMVI melanoma) was 0.964 µM, the TGI (LOX IMVI melanoma) was 15.1 µM and the GI50 (M14 melanoma) was 1.64 µM. For the same compound, the TGI (M14 melanoma) was 12.4 µM, the GI50 (MALME-3M melanoma) was 3.91 µM and the TGI (MALME-3M melanoma) was 35.4 µM. For the same compound, the GI50 (MCF7 breast) was 0.492 µM, the TGI (MCF7 breast) was 16.2 µM and the GI50 (MDA-MB-231 breast) was 5.15 µM. It also gave a TGI (MDA-MB-231 breast) of over 39.3 µM, a GI50 (MDA-MB-435) of 0.0752 µM and a TGI (MDA-MB-435) of 0.4 µM. It also gave a GI50 (MOLT-4 leukemia) of 1.29 µM, a TGI (MOLT-4 leukemia) of 23.8 µM and a GI50 (NCI-H226 lung) of 3.2 µM. It also gave a TGI (NCI-H226 lung) of 31.4 µM, a GI50 (NCI-H23 lung) of 3.46 µM and a TGI (NCI-H23 lung) of 30.8 µM. It also gave a GI50 (NCI-H460 lung) of 0.893 µM, a TGI (NCI-H460 lung) of 17.7 µM and a GI50 (NCI-H522 lung) of 0.342 µM. It also gave a TGI (NCI-H522 lung) of 1.85 µM, a GI50 (NCI/ADR-RES ovarian) of 2.89 µM and a TGI (NCI/ADR-RES ovarian) of 28.4 µM. For the same compound, the GI50 (OVCAR-3 ovarian) was 0.216 µM, the TGI (OVCAR-3 ovarian) was 0.712 µM and the GI50 (OVCAR-4 ovarian) was 16 µM. For the same compound, the TGI (OVCAR-4 ovarian) was over 100 µM, the GI50 (OVCAR-5 ovarian) was 20.2 µM and the TGI (OVCAR-5 ovarian) was over 100 µM. The GI50 (OVCAR-8 ovarian) was 1.35 µM, the TGI (OVCAR-8 ovarian) was over 52.3 µM and the GI50 (PC-3 prostate) was 5.19 µM. For the same compound, the TGI (PC-3 prostate) was 44.1 µM, the GI50 (RPMI-8226 leukemia) was 1.71 µM and the TGI (RPMI-8226 leukemia) was 11.4 µM. For the same compound, the GI50 (RXF 393 renal) was 1.05 µM, the GI50 (SF-268 CNS) was 1.52 µM and the TGI (SF-268 CNS) was 27.6 µM. For the same compound, the GI50 (SF-295 CNS) was 0.549 µM, the GI50 (SF-539 CNS) was 0.745 µM and the TGI (SF-539 CNS) was 6.67 µM. The GI50 (SK-MEL-2 melanoma) was 1.48 µM, the TGI (SK-MEL-2 melanoma) was over 48.6 µM and the GI50 (SK-MEL-28 melanoma) was 6.29 µM. For the same compound, the TGI (SK-MEL-28 melanoma) was over 100 µM, the GI50 (SK-MEL-5 melanoma) was 0.472 µM and the TGI (SK-MEL-5 melanoma) was 5.9 µM. The GI50 (SK-OV-3 ovarian) was 2.2 µM, the TGI (SK-OV-3 ovarian) was over 100 µM and the GI50 (SN12C renal) was 7.68 µM. The TGI (SN12C renal) was 42.2 µM, the GI50 (SNB-19 CNS) was 2.34 µM and the TGI (SNB-19 CNS) was over 100 µM. For the same compound, the GI50 (SNB-75 CNS) was 3.16 µM, the TGI (SNB-75 CNS) was over 100 µM and the GI50 (SR leukemia) was 0.238 µM. It also gave a TGI (SR leukemia) of 0.663 µM, a GI50 (SW-620 colon) of 0.361 µM and a TGI (SW-620 colon) of over 42.5 µM. It also gave a GI50 (T-47D breast) of 8.89 µM, a TGI (T-47D breast) of over 65.6 µM and a GI50 (TK-10 renal) of 1.1 µM. The TGI (TK-10 renal) was 8.01 µM, the GI50 (U251 CNS) was 0.421 µM and the TGI (U251 CNS) was 3.46 µM. For the same compound, the GI50 (UACC-257 melanoma) was 40.1 µM, the TGI (UACC-257 melanoma) was over 100 µM and the GI50 (UACC-62 melanoma) was 1.3 µM. It also gave a TGI (UACC-62 melanoma) of 20.6 µM, a GI50 (UO-31 renal) of 3.18 µM and a TGI (UO-31 renal) of over 43.5 µM.

Source: PubChem BioAssay (NCI)
